The structures appear in SMILES notation.

For this data set the following is noted: rat; liver microsomes; pH 7.4; 15.0 min; 1.0 µM.

As to `COc1ccc(Nc2cc3c(nc2OC)nc(CCc2ccccc2)n3C)cn1`, the half-life is 19.5 min.
The same measure for `CCN(CC)C(=O)c1sc2c(c1C)c(=O)n(Cc1ccccc1)c(=O)n2CC(=O)Nc1ccc(OC)cc1`: 5.16 min; for `COc1ccc(-n2nc(C3CCCN(C(=O)c4ccc(C)cc4)C3)[nH]c2=O)cc1` (stereo unspecified): 23.9 min.
The same measure for `COc1ccccc1C(=O)Nc1ccccc1C(=O)Nc1cccc(SC(F)(F)F)c1`: 18 min.
The same measure for `C#CCOc1ccc(-c2nnc(Nc3ccc(NC(C)=O)cc3)c3ccccc23)cc1`: > 30 min; for `CC(C)(C)OC(=O)N[C@@H](Cc1ccc(O[S+](=O)([O-])c2cccc3cnccc23)cc1)C(=O)N1CCN(Cc2ccccc2)CC1`: 1.6 min; for `CC(C)Nc1oc(-c2cccc3ccccc23)nc1C#N`: 24 min.
As to `O=C(Nc1cccnc1)c1cccs1`, the half-life is > 30 min.
The same measure for `Cc1ccc(-c2csc(CCn3nc(C)c4c(C(F)(F)F)cc(=O)[nH]c43)n2)cc1`: 4.7 min; for `CSc1nn(Cc2cccc(C)c2)c(N)c1S(=O)(=O)c1ccccc1`: 1.2 min; for `Cc1ccc(S(=O)(=O)Nc2cc(F)c(F)cc2C(=O)Nc2nc(-c3ccccc3)cs2)cc1`: 4.6 min.
To `Cc1ccnc(NC(=O)C2CC(=O)N(c3n[nH]c4cc(Br)ccc34)C2)c1` (stereo unspecified) belongs > 30 min.
The same measure for `COc1ccc2[nH]cc(CCNC(=O)c3cnn(-c4ccc(C)cc4)c3C3CCN(C(=O)OC(C)(C)C)CC3)c2c1`: 1.65 min.
`CC(Nc1ccc([S+](=O)([O-])Nc2nccs2)cc1)c1ccccc1` (stereo unspecified) gave a half-life of 13 min.
`CC(C)Oc1cccc(-c2csc(N3CCC(C(N)=O)CC3)n2)c1` returned a half-life of 3.09 min.
Compound `O=C(NCCCc1ccccc1)c1cccc(-c2cc(O)c3ncccc3c2)c1` displayed a half-life of 1.65 min. This half-life is about 1.9-fold lower than that of the compound before.
Take `CCCOC(c1cc2nccc(C(=O)O)c2[nH]1)c1ccccc1Cl` (stereo unspecified): the half-life worked out at 23.1 min.
The same measure for `O=C(Nc1nc(-c2ccccc2)cs1)c1ccncc1NS(=O)(=O)c1cccs1`: 12 min.
To `Oc1ccc(C(=S)N2CCN(c3cccc(Cl)c3)CC2)cc1` belongs 1.7 min; to `Nc1nc(N)c2cc(Sc3ccc4ccccc4c3)ccc2n1`, > 30 min; to `O=C1Nc2ccc(C(=O)c3ccco3)cc2/C1=C/c1cc(Cl)c(O)c(Cl)c1`, 7.7 min.
The same measure for `Cc1cc(NS(=O)(=O)c2ccc(NC(=O)c3oc4ccccc4c3C)cc2)nc(C)n1`: > 30 min; for `Cc1ccc(-c2[nH]n3c(=O)c4c(nc3c2C)CCCC4)cc1`: 8.72 min; for `COc1ccc(OC)c(C(=O)Nc2nc(-c3ccccc3)cs2)c1`: 20 min.
As for `c1ccc(Nc2cc3c(cn2)CN(Cc2ccsc2)CCN3)cc1`, the half-life is 1.74 min. Compared with the last compound, the half-life is about 11-fold lower.
The same measure for `Nc1c(S(=O)(=O)c2cccs2)c2nc3ccccc3nc2n1Cc1ccccc1`: 1.27 min; for `Fc1ccc(CNc2nc(-c3ccncc3)nc3ccccc23)cc1F`: 11 min.
The same measure for `Cc1ccc(-c2cc(C(=O)Nc3ccc(-c4noc(=O)[nH]4)cc3)c3ccccc3n2)cc1C`: > 30 min; for `Cc1nc(NCc2ccco2)nc2c1C(=O)CC(C)C2` (stereo unspecified): 2.7 min.
To `CC#CC(=O)N1CCC[C@H]1c1nc(-c2ccc(C(=O)Nc3ccccn3)cc2)c2c(N)nccn12` belongs 19.4 min; to `CN1CCN(C(=O)Cc2c[nH]c3ncc(-c4ccccc4Oc4ccccc4)cc23)CC1`, 1.72 min.
In turn, `NC(=O)C1CCN(c2nc(-c3cc4ccccc4o3)cs2)CC1` gave a half-life of 4.21 min. Compared with the last compound, the half-life is about 2.4-fold higher.
The same measure for `O=C(Nc1ccc(F)c(C(F)(F)F)c1)Nc1nnc(-c2ccncc2)s1`: > 30 min.
To `O=C(Cc1ccccc1)Nc1ccc(S(=O)(=O)Nc2nccs2)cc1` belongs > 30 min; to `Cc1ccc2nc(-c3cc(NC(=O)c4ccc5c(c4)OCCO5)ccc3Cl)oc2c1`, > 30 min.
Regarding `COc1ccc(Cn2c(C(=O)O)c(CNCc3ccco3)c3ccc(C)cc32)cc1`, the half-life was > 30 min.

Broadly, the half-life is the time needed for the level to fall by half in the phase considered.

Values taken from PubChem BioAssay AID1508591.
